Consider two molecules from patent publication US5322854A, “Reveromycin A, method for preparing the same, and antitumor agent and antifungal agent comprising the same” (Rikagaku Kenkyusho, priority 1990, dated 1994).

One data set concerns TGF-α. Conditions: background art; cited from earlier work.
For data set [1] the following is noted: background art; cited from earlier work.
A further data set deals with mouse epithelial cells. Description: Cell toxicity in mouse epithelial cells. In kind it is cell-based. As to conditions: 50 μg/ml.
The next data set has as its system src^ts -NRK cells. Description: Cell toxicity in src^ts-NRK cells. The class given is cell-based, Rat. As to conditions: 50 μg/ml, 32° C.
A further data set in a line: Acute toxicity. Conditions: mouse, in vivo, iv.

Where only a bound is given, the exact number is not on record here.

As for `O=CN/C=C/c1cc(O)ccc1O` [Erbstatin], the potency result with TGF-α is given as “not sufficiently potent”. The effect in blood result in data set [1] is given as “lose their effects in blood”.

As for `CCCC[C@@]1(OC(=O)CCC(=O)O)CC[C@]2(CC[C@H](C)[C@@H](C/C=C(C)/C=C/[C@H](O)[C@@H](C)/C=C/C(=O)O)O2)O[C@H]1/C=C/C(C)=C/C(=O)O` [Reveromycin A], the cell toxicity entry in the data set on mouse epithelial cells and with src^ts -NRK cells was “observed” each time. In addition, the Solubility result was “insoluble” in “Solubility” (aqueous acidic solution); “easily soluble” in “Solubility” (dimethylsulfoxide, ethyl acetate, and methanol). In the data set “Acute toxicity”, this molecule came in with an LD50 of at least 100 mg/kg.

For orientation: LD50 means the dose at which mortality reaches 50%. A high value points to lower toxicity.
